Test results published in patent publication US6538033B2, “Nitric oxide donor compounds” (Huntington Medical Research Institutes, priority 2000, dated 2003).

Legend:
washed platelets = experiment: Nitric oxide generation in vitro in the presence of washed platelets (chemiluminescence); format: cell-based, human; conditions: B-NOD 10, 100 or 1000 μM
Method: (§1) Venous blood was collected from healthy volunteers who had not previously been taking any drugs for at least two weeks; EDTA was used as an anticoagulant. Washed platelets were prepared as described in Radomski, M. and Moncada, S. (1983) An improved method for washing of human platelets with prostacyclin. Thromb Res 83,383-389, the disclosure of which is incorporated herein by reference, with some modifications. In brief, blood was centrifuged for 10 minutes at 200 g, and the resultant platelet rich plasma was removed. It was recentrifuged at 500 g for 10 minutes. The supernatant was discarded and the pellet was resuspended in Tyrode's solution. Platelet concentration was adjusted to 2×10^8 platelets/ml using a Coulter Counter (Model ZBI, Beckman-Coulter, Fullerton, Calif.). […]
(§2) The supernatant was analyzed for nitric oxide generation by chemiluminescence. […] Chemiluminescence was measured using a reducing system consisting of a ferrocene derivative dissolved in acetonitrile containing 1% perchloric acid, as described in Termin, A., Hoffmann, M. and Bing, R. J. (1992) A simplified method for the determination of nitric oxide in biological solutions. […] Under this condition, NO2 in the injected samples was reduced to NO and detected by chemiluminescence with the NO-analyzer (270 B, Sievers Res. Inc., Boulder, Colo.). […]

[1] = test system: cGMP production in platelets; experiment: Platelet cGMP in vitro (acetylation enzyme immunoassay); format: cell-based; conditions: human washed platelets; B-NOD 10, 100 or 1000 μM, 10 minutes
Method: Washed platelets were prepared from human blood as described above. 400 μl aliquots were incubated in the presence of B-NOD (10, 100 or 1000 μM) or methanol for 10 minutes. Incubations were terminated by centrifugation at 1000 g and the supernatant was removed. Ice-cold phosphate buffer was added to the pellets, and the pellets were sonicated for 20 seconds. cGMP was measured using an acetylation enzyme immunoassay system (Biotrak, Piscataway, N.J.).

[2] = Blood pressure and heart rate after oral administration; format: in vivo, New Zealand White male rabbits; conditions: 80 mg/kg orally, rabbits; one, three and five hours following administration
Method: (§3) New Zealand White male rabbits were given 80 mg/kg of B-NOD. B-NOD was dissolved in 2 ml DMSO, suspended in 8 ml carboxymethylcellulose (0.5%) and administered orally. Blood (1 ml) was drawn from the ear vein using heparinized syringes before and 10 minutes, 30 minutes, 1 hour, 3 hours, 5 hours, 7 hours, and 24 hours following B-NOD administration. Blood samples were centrifuged at 1200 g for 10 minutes and deproteinized by an ultrafiltration device (MPS Micropartition, Millipore Corporation, Bedford, Mass.) and centrifuged again at 2500 g for 90 minutes. Plasma NOx was measured by chemiluminescence as described above.
(§4) Heart rate and systolic and diastolic blood pressures were measured through a 22 gauge by one inch catheter inserted into the ear artery connected to a DIGI-MED™Heart Performance Analyzer 100 (Louisville, Ky.). Determination of blood pressure and heart rate were carried out prior to and 1, 3, 5 hours after B-NOD administration. FIG. 4 illustrates concentrations of NOx in plasma of animals up to 24 hours following administration of B-NOD.
Several NO donors are known to cause a fall in blood pressure, particularly when administered intravenously.

[3] = Nitric oxide generation in vivo, plasma NOx after oral administration; design: species or system New Zealand White male rabbits; conditions: 80 mg/kg orally, rabbits
Method: as §3, §4

[4] = Nitric oxide generation in vitro, spontaneous release in the absence of washed platelets (chemiluminescence); conditions: without platelets, B-NOD 10, 100 or 1000 μM
Method: as §1, §2

platelet aggregation = experiment: Platelet aggregation in vitro, thrombin as agonist (nephelometric aggregometer); format: cell-based, New Zealand rabbits; conditions: rabbit washed platelets; B-NOD 10, 100 or 1000 μM, 10 min preincubation; thrombin 0.04 to 0.14 U/ml
Method: Healthy male New Zealand rabbits were anesthetized with pentobarbital (10 mg/kg iv), ketamine (40 mg/kg im), xylazine (10 mg/kg im) and atropine (0.5 mg im). They were […] and mechanically ventilated with 95% oxygen (rate 40 strokes/min, tidal volume 25 ml). The heart was exposed with a median sternotomy, blood (40 ml) was collected from the right ventricle and washed platelets were prepared as described above. Platelet aggregation was monitored by a standard nephelometric technique in which 0.5 ml of platelet suspension (2×10^8 platelets/ml) were incubated at 37° C. and stirred at 1000 rpm in an aggregometer (Model PAP-3, Bio/Data corporation, Horsham, Pa.). The antiaggregant effects of B-NOD (10, 100 or 1000 μM) were tested by incubating platelets with B-NOD at 37.8° C. before the addition of thrombin. Incubation was carried out for 10 min. Thrombin was used as an agonist at relatively low concentrations (0.04 to 0.14 U/ml) to obtain submaximal aggregation in order to evaluate the drug's inhibitory effect.

## O=C(Oc1cccc(CO[N+](=O)[O-])c1)c1ccccc1O [B-NOD, 3-(nitrooxymethyl)phenyl 2-hydroxybenzoate]
Washed platelets; in the presence of platelets (2×10^8 platelets/ml), 10 minutes
  maximal NO release: 156 µmol/L
Washed platelets; with platelets
  NO production (NOx): increased NO production in a dose-dependent manner
[1]
  cyclic GMP production in platelets: increased cyclic GMP production in a dose-dependent manner
[2]
  diastolic pressure: did not affect
  heart rate: failed to change
  systolic pressure: did not affect
[3]; 24 hours
  NOx concentration in plasma after 24 hours: returned to control values
[3]; seven hours following administration
  NOx concentration in plasma, course to seven hours: plateaued for seven hours
[3]; three hours following administration (increase from 59 before administration)
  NOx concentration in plasma: 115 µmol/L
[4]
  NO production (NOx): increased NO production in a dose-dependent manner
[4]; 37° C., 10 minutes
  maximal NO release: 98 µmol/L
Platelet aggregation
  inhibition of platelet aggregation as compared to the control: approximately 25%
